Reference: patent US4870002A, “Method of prevention of oxidative injury to cells” (priority 1985, dated 1989)
“Also recorded” adds a separate entry of the source. Where two headings read alike, the source gives them in different places.

Tests used:
pig RBCs = assay: Thermal fragility / hemolysis of RBCs (410 nm absorbance of supernatant); type: cell-based
Procedure: Blood was collected from Landrace-Duroc swine from a closed herd. Pigs from this herd had previously expressed episodes of porcine stress syndrome (malignant hyperthermia) following halothane anesthesia. The blood was collected into acidic citrated dextrose solution in standard blood bags. The blood was diluted 1:10 in phosphate (0.1M) buffered saline (PBS), pH 7.4, in 10 ml aliquots, centrifuged in a clinical centrifuge, and the erythrocytes were resuspended in fresh PBS. The cells were stored at 4° C. until used in the various assays. The post-collection chronological age of the RBCs used for a particular assay is noted in the results for each assay. The cells were counted in an automated cell counter (Coulter ZBI, Coulter Electronics, Inc., Hialeah, Fla. 33010).
Red blood cells were heated in 1 or 1.5 ml aliquots of PBS pH 7.4 with or without additional reagents in cellulose nitrate or polypropylene centrifuge tubes. Two concentrations of cells were used as indicated in the results. Heating was accomplished by three methods: microwave radiation, hot air, or water bath heating. The microwave device was a circularly polarized waveguide powered by a 1-kw S-band (microwave) amplifier (Model 10704,MCL, Inc., La Grange, Ill.). The heating of the sample at a specific absorption rate (SAR) of 91±4 W/kg (continuous wave (CW), 2450MHz) was offset by an air-cooling system that maintained a constant temperature. This system has been previously described in greater detail in Kiel, J. L. and D. N. Erwin, "Microwave and thermal interactions with oxidative hemolysis", 16 Physiol. Chem. Phys. Med. NMR, 317-323 (1984), which reference is hereby incorporated in its entirety by this specific reference thereto. […] The temperature was held within ±0.2° C. by this system. In the absence of microwave radiation, the temperature was held constant by hot air alone. The microwave/hot air system was brought to 37° C. for 15 min. prior to raising the temperature to 43° C. by microwaves or hot hot air. The water bath heating held the temperature within ±0.5° C. Heating times were 10, 15, or 30 min. The temperatures examined were 37°, 43°, 45°, or 48°.
Hemoglobin released into the supernatants of the heated cells were determined by the method described in the above-incorporated reference of Kiel and Erwin (1984). In brief, the supernatants were collected following centrifugation in a clinical centrifuge, diluted 1:2 in PBS, pH 7.4, and the optical absorbances at 410 nm were determined in a dual beam spectrophotometer. Pyruvate, lactate, inosine, hydrogen peroxide, mimosine, and/or 3-amino-L-tyrosine were added to the samples as indicated in Tables 1-3 and 9-12. All reagents were diluted in PBS and the final volumes of the samples were constant.

[1] = tested on: Con A-Lu-BSA labeled pig RBCs; assay: Chemiluminescence of Con A-Lu-BSA labeled pig RBCs with exogenous hydrogen peroxide; type: cell-based
Procedure: The luminol-bovine serum albumin (Lu-BSA) complex was made by mixing 2 mg luminol (5-amino-2, 3-dihydrophthalazine-1,4-dione), 0.2 ml of 2 mg BSA/ml PBS (pH 6.9), and 1.6 ml of PBS, pH 6.9. The preparation was then passed through a 0.22 μm nitrocellulose filter to remove insoluble luminol. Next, 0.2 ml of 2 mg Con A/ml of PBS, pH 6.9, was added to the filtrate. After gentle mixing, 10 μl of 25% glutaraldehyde were added. The solution was incubated in the refrigerator for 1 hour. To stop the conjugation, 100 mg of glycine was added to the solution. The solution was then pressed through a 48 ml column of dextran gel filtration beads equilibrated with PBS, pH 6.9. The gel exclusion size was greater than 5000 for globular molecules. The fractions were collected and tested for luminescent labeling activity.
One ml of supernatant of each 10 ml aliquot of 1:20 diluted RBCs was replaced with 1 ml of Con A-Lu-BSA solution as previously described. The preparation was incubated for 15 min. at 37° C. in a water-jacketedcell culture incubator. The cells were then pelleted in a clinical centrifuge, resuspended in PBS, and washed in the same manner two additional times. The washed cells were maintained at 4° C. until used the same day of preparation.
Following exposure to chemical or physical stressors, 100 μl of the RBC suspension was added to 500 μl of PBS, pH 7.4, containing 0.3% hydrogen peroxide, in a scintillation vial. To activate the sample, 100 μl of 0.1N NaOH were added to the vial in place in an ATP photometer (Integrating ATP Photometer Model 3000, Science Applications, San Diego, California 92121) The photometer was set to a dark count of 1 count/30 second at a sensitivity of 600 at room temperature (approximately 23° C.). All counts followed a 5 second delay period to allow for stabilization of the photomultiplier. The counts are reported as counts/30 sec.
All essays were run at room temperature. The post-collection age of those cells was 11-18 days and the cells were used the day of labeling. […] Pyruvate (1.43 mM), an autoxidizable substrate, doubled the CL of labeled cells.

[2] = tested on: T cell (spleen) peroxidase; assay: Inhibition of T cell (spleen) peroxidase activity; type: biochemical

Nc1cc(C[C@H](N)C(=O)O)ccc1O [3-aminotyrosine, 3-amino-L-tyrosine]
Percent difference from controls (corrected), 4° C. (pig RBCs; 74 μM, 48° C. 30 min): -0.8%
Percent difference from controls (corrected), 48° C. (pig RBCs; 74 μM, 48° C. 30 min): -38.3%
410 nm absorbance, Actual (pig RBCs; 74 μM, 48° C. 30 min, RBCs 20 days post collection, 1.4×10^9 per ml): 0.491 ± 0.032
410 nm absorbance, Corrected (pig RBCs; 74 μM, 48° C. 30 min, corrected for RBC dilution): 0.368
effect on thermal hemolysis, in words (pig RBCs; 74 μM, 48° C. for 30 min): suppressed the thermal hemolysis to the level of the 4 °C control; also recorded: powerful inhibitor
effect on thermal hemolysis, in words (pig RBCs; 1.49 mM, 45° C.): did not significantly inhibit
hemolysis, optical density of supernatants (1:2 dilution) at 410 nm (pig RBCs; 3-amino-L-tyrosine and H2O2 at 37° C., 4° C. control 0.243±0.004): 0.261±0.007
hemolytic value (pig RBCs; preincubation with 3-amino-L-tyrosine alone (1.49 mM, 4° C., 72 hours)): 0.452±0.02
spontaneous hemolysis reading (pig RBCs; pyruvate and 3-amino-L-tyrosine, 37° C.): 0.326±0.03
CL (30 sec) ([1]; 160 μM): 5,430 ± 1,266 counts/30 sec
CL (30 sec) ([1]; 1.44 mM): 844 ± 165 counts/30 sec
activity at 160 µM ([1]; Sus scrofa, Erythrocyte, 160 μM, read-out: Percent control): 18%
activity at 1440 µM ([1]; Sus scrofa, Erythrocyte, 1.44 mM, read-out: Percent control): 3%
activity at 11500 µM ([1]; Sus scrofa, Erythrocyte, pretreatment 11.5 mM, 30 min at room temperature, read-out: Percent control): 74%
inhibition at 160 µM ([1]; Sus scrofa, 160 μM, read-out: inhibition of CL of labeled RBCs): 82%
inhibition at 1440 µM ([1]; Sus scrofa, 1.44 mM, read-out: inhibition of CL of labeled RBCs): 97%
inhibition at 1440 µM ([1]; Sus scrofa, 1.44 mM, read-out: inhibition of the natural CL): 94%
inhibition at 11500 µM ([1]; Sus scrofa, pretreatment of labeled cells with 11.5 mM, 30 min at room temperature, read-out: inhibition of CL): 26%
CL (30 sec) ([1]; pretreatment 11.5 mM, 30 min at room temperature): 22,457 ± 2,128 counts/30 sec
effect on T cell (spleen) peroxidase activity, in words [2]: inhibit
